Laboratory results: patent publication US7138361B2, “Herbicidal heterocycles” (E. I. du Pont de Nemours and Company, priority 2000, dated 2006)

Key:
Format in all cases: in vivo
Nightshade = test: Test C preemergence; conditions: scale 0 to 100, 0 no effect, 100 complete control
Sunflower = test: Test C preemergence; conditions: Rate 125 g/ha; scale 0 to 100, 0 no effect, 100 complete control
[1] = system: Surinam grass (Brachiaria decumbens); test: Test C preemergence; conditions: for Plant response rating, Surinam grass: scale 0 to 100, 0 no effect, 100 complete control; for Plant response rating (0 to 100), Surinam grass: preemergence, visual evaluation after 12 to 14 days
In short: (§1)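 Visual injury scores of 0–100, with 100 meaning complete control, were given relative to controls after 12–14 days in the greenhouse. Treatments used a surfactant-containing non-phytotoxic solvent formulation, sprayed on seeded pots preemergence or on 1–4-leaf plants of 2–18 cm postemergence.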

[2] = system: bermudagrass (Cynodon dactylon); test: Test C preemergence; conditions: for Plant response rating, Bermudagrass: scale 0 to 100, 0 no effect, 100 complete control; for Plant response rating (0 to 100 where 0 is no effect and 100 is complete control), Bermudagrass: preemergence, visual evaluation after 12 to 14 days
In short: as §1

[3] = system: cocklebur (Xanthium strumarium); test: Test C preemergence; conditions: for Plant response rating, Cocklebur: scale 0 to 100, 0 no effect, 100 complete control; for Plant response rating (0 to 100), Cocklebur: preemergence, visual evaluation after 12 to 14 days
In short: as §1

[4] = system: common ragweed (Ambrosia elatior); test: Test C preemergence; conditions: for Plant response rating, Ragweed, Common: scale 0 to 100, 0 no effect, 100 complete control
In short: as §1

corn (Zea mays) = test: Test C preemergence; conditions: for Plant response rating, Corn: scale 0 to 100, 0 no effect, 100 complete control; for Plant response rating (0 to 100), Corn: preemergence, visual evaluation after 12 to 14 days
In short: as §1

[5] = system: crabgrass (Digitaria sanguinalis); test: Test C preemergence; conditions: for Plant response rating, Crabgrass: scale 0 to 100, 0 no effect, 100 complete control; for Plant response rating (0 to 100), Crabgrass: preemergence, visual evaluation after 12 to 14 days
In short: as §1

[6] = system: giant foxtail (Setaria faberii); test: Test C preemergence; conditions: for Plant response rating, Foxtail, Giant: scale 0 to 100, 0 no effect, 100 complete control; for Plant response rating (0 to 100), Foxtail, Giant: preemergence, visual evaluation after 12 to 14 days
In short: as §1

[7] = system: goosegrass (Eleusine indica); test: Test C preemergence; conditions: for Plant response rating, Goosegrass: scale 0 to 100, 0 no effect, 100 complete control; for Plant response rating (0 to 100), Goosegrass: preemergence, visual evaluation after 12 to 14 days
In short: as §1

[8] = system: johnsongrass (Sorghum halepense); test: Test C preemergence; conditions: for Plant response rating, Johnsongrass: scale 0 to 100, 0 no effect, 100 complete control; for Plant response rating (0 to 100), Johnsongrass: preemergence, visual evaluation after 12 to 14 days
In short: as §1

kochia (Kochia scoparia) = test: Test C preemergence; conditions: for Plant response rating, Kochia: scale 0 to 100, 0 no effect, 100 complete control; for Plant response rating (0 to 100), Kochia: preemergence, visual evaluation after 12 to 14 days
In short: as §1

[9] = system: lambsquarters (Chenopodium album); test: Test C preemergence; conditions: for Plant response rating, Lambsquarters: scale 0 to 100, 0 no effect, 100 complete control
In short: as §1

[10] = system: morningglory (Ipomoea hederacea); test: Test C preemergence; conditions: for Plant response rating, Morningglory: scale 0 to 100, 0 no effect, 100 complete control
In short: as §1

[11] = system: pigweed (Amaranthus retroflexus); test: Test C preemergence; conditions: for Plant response rating, Pigweed: scale 0 to 100, 0 no effect, 100 complete control
In short: as §1

soybean (Glycine max) = test: Test C preemergence; conditions: for Plant response rating, Soybean: scale 0 to 100, 0 no effect, 100 complete control
In short: as §1

[12] = system: velvetleaf (Abutilon theophrasti); test: Test C preemergence; conditions: for Plant response rating, Velvetleaf: scale 0 to 100, 0 no effect, 100 complete control
In short: as §1

[13] = system: woolly cupgrass (Eriochloa villosa); test: Test C preemergence; conditions: for Plant response rating, Cupgrass, Woolly: scale 0 to 100, 0 no effect, 100 complete control; for Plant response rating (0 to 100), Cupgrass, Woolly: preemergence, visual evaluation after 12 to 14 days
In short: as §1

[14] = system: yellow nutsedge (Cyperus esculentus); test: Test C preemergence; conditions: for Plant response rating, Nutsedge: scale 0 to 100, 0 no effect, 100 complete control
In short: as §1

[15] = system: barnyardgrass (Echinochloa crus-galli); test: Test C flooded paddy test; conditions: for Barnyardgrass plant response rating: Flooded Paddy, scale 0 to 100, 0 no effect, 100 complete control; for Plant response rating, Barnyardgrass: flooded paddy test, scale 0 to 100 (0 no effect, 100 complete control)
In short: (§2)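 Plants were grown to the 2-leaf stage under flooded paddy conditions and treated. They were then kept in a greenhouse for 12 to 14 days and visually rated against untreated controls on a 0–100 scale, where 0 is no effect and 100 is complete control.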

[16] = system: duck salad (Heteranthera limosa); test: Test C flooded paddy test; conditions: for Ducksalad plant response rating: Flooded Paddy, scale 0 to 100, 0 no effect, 100 complete control; for Plant response rating, Ducksalad: flooded paddy test, scale 0 to 100 (0 no effect, 100 complete control)
In short: as §2

[17] = system: smallflower flatsedge (Cyperus difformis); test: Test C flooded paddy test; conditions: for Flatsedge plant response rating: Flooded Paddy, scale 0 to 100, 0 no effect, 100 complete control; for Plant response rating, Flatsedge: flooded paddy test, scale 0 to 100 (0 no effect, 100 complete control)
In short: as §2

[18] = preemergence, Rate 500 g/ha, visual evaluation after 12 to 14 days

CCC(C)c1ccn(C2CCN(c3ccc(C)c(OC)c3)C2=O)n1 (centres unmarked) [Compound 80]
0: Plant response rating, Cocklebur ([3]; Rate 62 g/ha) | Plant response rating (0 to 100), Cocklebur ([3]; Rate 250 g/ha) | Plant response rating, Corn (corn (Zea mays); Rate 62 g/ha) | Plant response rating (0 to 100), Corn (corn (Zea mays); Rate 250 g/ha) | Plant response rating, Foxtail, Giant ([6]; Rate 62 g/ha) | Plant response rating, Morningglory ([10]; Rate 62 g/ha) | Plant response rating, Pigweed ([11]; Rate 125 g/ha) | Plant response rating, Pigweed ([11]; preemergence, Rate 250 g/ha) | Plant response rating, Nutsedge ([14]; Rate 62 g/ha) | Plant response rating (0 to 100), Nutsedge [14, 18] | Plant response rating, Nutsedge ([14]; preemergence, Rate 250 g/ha) | Plant response rating, Barnyardgrass ([15]; Rate 62 g/ha)
100: Plant response rating, Nightshade (Nightshade; Rate 125 g/ha) | Plant response rating, Nightshade (Nightshade; Rate 250 g/ha) | Plant response rating (0 to 100), Surinam grass ([1]; Rate 250 g/ha) | Plant response rating (0 to 100), Surinam grass ([1]; Rate 500 g/ha) | Plant response rating, Bermudagrass ([2]; Rate 62 g/ha) | Plant response rating, Bermudagrass ([2]; Rate 125 g/ha) | Plant response rating (0 to 100 where 0 is no effect and 100 is complete control), Bermudagrass ([2]; Rate 250 g/ha) | Plant response rating (0 to 100 where 0 is no effect and 100 is complete control), Bermudagrass ([2]; Rate 500 g/ha) | Plant response rating (0 to 100), Cocklebur ([3]; Rate 500 g/ha) | Plant response rating, Ragweed, Common ([4]; Rate 125 g/ha) | Plant response rating (0 to 100), Ragweed, Common [4, 18] | Plant response rating, Ragweed, Common ([4]; preemergence, Rate 250 g/ha) | Plant response rating, Crabgrass ([5]; Rate 62 g/ha) | Plant response rating, Crabgrass ([5]; Rate 125 g/ha) | Plant response rating (0 to 100), Crabgrass ([5]; Rate 250 g/ha) | Plant response rating (0 to 100), Crabgrass ([5]; Rate 500 g/ha) | Plant response rating, Foxtail, Giant ([6]; Rate 125 g/ha) | Plant response rating, Goosegrass ([7]; Rate 62 g/ha) | Plant response rating, Goosegrass ([7]; Rate 125 g/ha) | Plant response rating (0 to 100), Goosegrass ([7]; Rate 250 g/ha) | Plant response rating (0 to 100), Goosegrass ([7]; Rate 500 g/ha) | Plant response rating, Kochia (kochia (Kochia scoparia); Rate 62 g/ha) | Plant response rating, Kochia (kochia (Kochia scoparia); Rate 125 g/ha) | Plant response rating (0 to 100), Kochia (kochia (Kochia scoparia); Rate 250 g/ha) | Plant response rating (0 to 100), Kochia (kochia (Kochia scoparia); Rate 500 g/ha) | Plant response rating, Lambsquarters ([9]; Rate 62 g/ha) | Plant response rating, Lambsquarters ([9]; Rate 125 g/ha) | Plant response rating (0 to 100), Lambsquarters [9, 18] | Plant response rating, Lambsquarters ([9]; preemergence, Rate 250 g/ha) | Plant response rating (0 to 100), Morningglory [10, 18] | Plant response rating, Morningglory ([10]; preemergence, Rate 250 g/ha) | Plant response rating (0 to 100), Soybean (soybean (Glycine max); [18]) | Plant response rating (0 to 100), Velvetleaf [12, 18] | Plant response rating, Cupgrass, Woolly ([13]; Rate 125 g/ha) | Plant response rating (0 to 100), Cupgrass, Woolly ([13]; Rate 250 g/ha) | Plant response rating (0 to 100), Cupgrass, Woolly ([13]; Rate 500 g/ha) | Ducksalad plant response rating ([16]; Rate 250 g/ha) | Ducksalad plant response rating ([16]; Rate 500 g/ha) | Plant response rating, Ducksalad ([16]; Rate 125 g/ha) | Flatsedge plant response rating ([17]; Rate 500 g/ha)
30: Plant response rating, Sunflower (Sunflower) | Plant response rating, Corn (corn (Zea mays); Rate 125 g/ha) | Plant response rating, Soybean (soybean (Glycine max); Rate 125 g/ha)
80: Plant response rating, Ducksalad ([16]; Rate 62 g/ha)
50: Plant response rating, Cocklebur ([3]; Rate 125 g/ha) | Plant response rating (0 to 100), Foxtail, Giant ([6]; Rate 500 g/ha) | Plant response rating, Soybean (soybean (Glycine max); preemergence, Rate 250 g/ha)
40: Plant response rating (0 to 100), Foxtail, Giant ([6]; Rate 250 g/ha) | Plant response rating (0 to 100), Pigweed [11, 18] | Plant response rating, Velvetleaf ([12]; Rate 125 g/ha)
20: Plant response rating, Surinam grass ([1]; Rate 62 g/ha) | Plant response rating, Johnsongrass ([8]; Rate 62 g/ha) | Plant response rating, Morningglory ([10]; Rate 125 g/ha) | Plant response rating, Nutsedge ([14]; Rate 125 g/ha)
60: Plant response rating (0 to 100), Corn (corn (Zea mays); Rate 500 g/ha) | Plant response rating, Johnsongrass ([8]; Rate 125 g/ha) | Plant response rating (0 to 100), Johnsongrass ([8]; Rate 250 g/ha) | Plant response rating, Barnyardgrass ([15]; Rate 125 g/ha)
70: Plant response rating, Surinam grass ([1]; Rate 125 g/ha) | Plant response rating (0 to 100), Johnsongrass ([8]; Rate 500 g/ha) | Plant response rating, Velvetleaf ([12]; preemergence, Rate 250 g/ha)
90: Plant response rating, Nightshade (Nightshade; Rate 62 g/ha) | Plant response rating, Cupgrass, Woolly ([13]; Rate 62 g/ha) | Barnyardgrass plant response rating ([15]; Rate 250 g/ha) | Barnyardgrass plant response rating ([15]; Rate 500 g/ha) | Flatsedge plant response rating ([17]; Rate 250 g/ha) | Plant response rating, Flatsedge ([17]; Rate 62 g/ha) | Plant response rating, Flatsedge ([17]; Rate 125 g/ha)
